Data: US8569281B2, “Compounds and their administration for treating a neurodegenerative disease as well as a method for identifying a compound capable of inhibiting a kinase, such as LRRK” (Medical Research Council Technology, priority 2010, dated 2013)

Biological target: LRRK2 (Homo sapiens (Human), UniProt Q5S007)
Experiment: In Vitro LRRK2 Assay (LabChip 3000, fluorescently-labeled peptide substrate)
Assay type: biochemical
Conditions: ATP 130 μM, substrate 1 μM, 2 hours, ambient temperature; LRRK2 variant not given; read-out: Ki (μM), affinity values for LRRK2
Protocol: This assay was used to determine a compound's potency in inhibiting activity of LRRK2 by determining, Kiapp, IC50, or percent inhibition values. In a polypropylene plate, LRRK2, fluorescently-labeled peptide substrate, ATP and test compound were incubated together. Using a LabChip 3000 (Caliper Life Sciences), after the reaction the substrate was separated by capillary electrophoresis into two populations: phosphorylated and unphosphorylated. The relative amounts of each were quantitated by fluorescence intensity. LRRK2 Ki was determined according to the equation: Y=V0*(1−((x+Ki*(1+S/Km)+Et)/(2*Et)−(((x+Ki*(1+S/Km)+Et)^2−(4*Et*x))^0.5)/(2*Et))).
Ki values in Table 4 and elsewhere herein are shown in μM.
Assay conditions and materials used were as follows:
Compound Plate Preparation:
For serial dilutions, 34.6 μl DMSO was added to columns 3-24.
Total and Blank Preparation:
In Complete Reaction Buffer, substrate was diluted to 4 μM. Equal volumes of Complete Reaction Buffer and 4 μM substrate were combined to obtain the blank. Equal volumes of Complete Reaction Buffer and 4 μM substrate were combined and to the combined solution was added 2× final LRRK2 concentration.
To a 50 μl polypropylene plate, 5 μl/well buffer/substrate was added by hand to Blank wells. A Biomek FX was used to start the kinase reaction (“PLK SAR 23 ATP”). The following were added to the appropriate wells: • 2 μl compound+23 μl ATP; • 5 μl/well compound/ATP in Assay Plate; • 5 μl/well kinase/substrate in Assay Plate;
The plate was incubated for 2 hours in the dark. Biomek FX was used to stop the kinase reaction (“PLK Stop”), and 10 μl/well Stop solution was added to the Assay Plate. Results were read on the LabChip 3000.
The LabChip 3000 was run using the job “LRRK2 IC50” with the following job settings: • Pressure: −1.4 psi • Downstream voltage: −500 V • Upstream voltage: −2350 V • Post sample buffer sip time: 75 seconds • Post dye buffer sip time: 75 seconds • Final delay time: 200 seconds Parkinson's Disease Animal Model

Sequence of LRRK2 (Q5S007 whole entry G2019S): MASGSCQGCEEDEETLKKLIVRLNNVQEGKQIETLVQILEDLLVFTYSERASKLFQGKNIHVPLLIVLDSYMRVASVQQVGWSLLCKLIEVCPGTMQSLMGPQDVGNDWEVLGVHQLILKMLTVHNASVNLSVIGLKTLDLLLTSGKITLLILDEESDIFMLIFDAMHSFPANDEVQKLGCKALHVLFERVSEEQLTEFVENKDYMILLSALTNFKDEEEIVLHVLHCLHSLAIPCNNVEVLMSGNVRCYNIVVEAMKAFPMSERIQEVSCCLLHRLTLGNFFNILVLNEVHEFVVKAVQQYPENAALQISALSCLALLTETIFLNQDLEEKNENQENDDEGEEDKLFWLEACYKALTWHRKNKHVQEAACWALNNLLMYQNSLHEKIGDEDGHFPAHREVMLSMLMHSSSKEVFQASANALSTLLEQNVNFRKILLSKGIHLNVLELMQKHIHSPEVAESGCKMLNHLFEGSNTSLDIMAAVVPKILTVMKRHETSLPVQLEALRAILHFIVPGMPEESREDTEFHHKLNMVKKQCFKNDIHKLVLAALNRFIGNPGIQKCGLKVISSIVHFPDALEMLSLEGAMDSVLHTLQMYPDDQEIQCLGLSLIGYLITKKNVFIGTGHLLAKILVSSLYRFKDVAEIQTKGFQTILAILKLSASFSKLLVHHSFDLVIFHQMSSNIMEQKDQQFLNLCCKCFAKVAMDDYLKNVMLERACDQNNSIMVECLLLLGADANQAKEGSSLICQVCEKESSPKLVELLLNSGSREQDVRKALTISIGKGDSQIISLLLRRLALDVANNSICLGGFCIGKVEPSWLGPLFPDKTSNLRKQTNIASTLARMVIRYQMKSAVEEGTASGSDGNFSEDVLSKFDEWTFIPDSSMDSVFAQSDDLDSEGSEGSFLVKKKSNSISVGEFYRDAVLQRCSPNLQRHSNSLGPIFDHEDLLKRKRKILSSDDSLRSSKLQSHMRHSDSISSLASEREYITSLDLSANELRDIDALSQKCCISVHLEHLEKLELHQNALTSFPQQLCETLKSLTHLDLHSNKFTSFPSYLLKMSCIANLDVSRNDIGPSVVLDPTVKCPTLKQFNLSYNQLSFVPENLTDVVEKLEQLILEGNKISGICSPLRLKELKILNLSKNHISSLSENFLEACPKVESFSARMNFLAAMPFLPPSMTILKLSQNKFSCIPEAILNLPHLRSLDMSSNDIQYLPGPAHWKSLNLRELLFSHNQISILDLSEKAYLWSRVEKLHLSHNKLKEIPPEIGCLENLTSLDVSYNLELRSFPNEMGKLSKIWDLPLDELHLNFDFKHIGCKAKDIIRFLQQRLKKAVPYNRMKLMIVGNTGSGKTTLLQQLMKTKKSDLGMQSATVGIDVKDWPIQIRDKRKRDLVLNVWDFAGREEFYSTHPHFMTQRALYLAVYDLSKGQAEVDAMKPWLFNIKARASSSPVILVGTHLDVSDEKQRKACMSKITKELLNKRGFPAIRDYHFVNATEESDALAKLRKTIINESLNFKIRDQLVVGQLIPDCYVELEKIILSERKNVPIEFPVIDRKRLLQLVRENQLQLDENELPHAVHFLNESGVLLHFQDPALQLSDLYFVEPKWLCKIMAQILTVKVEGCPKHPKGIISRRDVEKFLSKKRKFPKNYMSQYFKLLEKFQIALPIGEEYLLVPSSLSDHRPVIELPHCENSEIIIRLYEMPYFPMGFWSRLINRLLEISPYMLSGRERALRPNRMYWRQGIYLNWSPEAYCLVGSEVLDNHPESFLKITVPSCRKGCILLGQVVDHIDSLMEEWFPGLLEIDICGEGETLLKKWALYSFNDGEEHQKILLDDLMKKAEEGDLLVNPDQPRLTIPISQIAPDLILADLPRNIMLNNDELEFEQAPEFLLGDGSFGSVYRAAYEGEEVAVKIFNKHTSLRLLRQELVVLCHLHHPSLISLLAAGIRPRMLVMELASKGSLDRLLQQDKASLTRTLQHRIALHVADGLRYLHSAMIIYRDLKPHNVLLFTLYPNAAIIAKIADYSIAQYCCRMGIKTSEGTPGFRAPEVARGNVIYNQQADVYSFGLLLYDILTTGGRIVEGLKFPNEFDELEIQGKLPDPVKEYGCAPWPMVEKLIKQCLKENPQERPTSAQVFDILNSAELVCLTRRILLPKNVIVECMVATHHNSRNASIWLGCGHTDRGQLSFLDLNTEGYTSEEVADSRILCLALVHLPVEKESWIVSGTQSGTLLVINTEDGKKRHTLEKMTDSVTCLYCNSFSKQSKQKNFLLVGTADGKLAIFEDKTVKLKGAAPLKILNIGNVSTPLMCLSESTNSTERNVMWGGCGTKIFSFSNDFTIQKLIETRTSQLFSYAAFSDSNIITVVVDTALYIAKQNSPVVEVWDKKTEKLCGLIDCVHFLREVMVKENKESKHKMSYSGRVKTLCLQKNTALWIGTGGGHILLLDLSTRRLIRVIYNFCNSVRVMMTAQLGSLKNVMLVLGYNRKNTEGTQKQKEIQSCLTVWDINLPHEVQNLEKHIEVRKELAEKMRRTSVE

Row | Compound | Ki [µM]
1 | c1cc2[nH]nc(-c3cnn(C4CCOC4)c3)c2c(OC2CCOCC2)n1 (centres unmarked) [Example 98, 4-(Tetrahydro-2H-pyran-4-yloxy)-3-(1-(tetrahydrofuran-3-yl)-1H-pyrazol-4-yl)-1H-pyrazolo[4,3-c]pyridine] | 0.005
2 | Cc1cc(-c2n[nH]c3ccnc(OC4CCOCC4)c23)cc(C)n1 [Example 100, 3-(2,6-Dimethylpyridin-4-yl)-4-(tetrahydro-2H-pyran-4-yloxy)-1H-pyrazolo[4,3-c]pyridine] | 0.005
3 | COc1cc(-c2n[nH]c3ccnc(OC4CCOCC4)c23)ccn1 [Example 101, 3-(2-Methoxypyridin-4-yl)-4-(tetrahydro-2H-pyran-4-yloxy)-1H-pyrazolo[4,3-c]pyridine] | 0.022
4 | Fc1c(-c2n[nH]c3ccnc(OC4CCOCC4)c23)ccnc1N1CCOCC1 [Example 103, 4-(3-Fluoro-4-(4-(tetrahydro-2H-pyran-4-yloxy)-1H-pyrazolo[4,3-c]pyridin-3-yl)pyridin-2-yl)morpholine] | 0.046
5 | COc1cc(-c2n[nH]c3ccnc(OC)c23)ccn1 [Example 106, 4-Methoxy-3-(2-methoxypyridin-4-yl)-1H-pyrazolo[4,3-c]pyridine] | 0.08
6 | COc1nccc2[nH]nc(-c3ccnc(N4CCOCC4)c3)c12 [Example 107, 4-(4-(4-Methoxy-1H-pyrazolo[4,3-c]pyridin-3-yl)pyridin-2-yl)morpholine] | 0.029
7 | COc1nccc2[nH]nc(-c3ccnc(C(F)(F)F)c3)c12 [Example 108, 4-Methoxy-3-(2-(trifluoromethyl)pyridin-4-yl)-1H-pyrazolo[4,3-c]pyridine] | 0.075
8 | COc1nccc2n[nH]c(-c3ccc(C(=O)N4CCOCC4)c(Cl)c3)c12 [Example 109, (2-Chloro-4-(4-methoxy-1H-pyrazolo[4,3-c]pyridin-3-yl)phenyl)(morpholino)methanone] | 0.209
9 | c1cc(-c2n[nH]c3ccnc(OC4CCOCC4)c23)cc(N2CCCC2)n1 [Example 110, 3-(2-(Pyrrolidin-1-yl)pyridin-4-yl)-4-(tetrahydro-2H-pyran-4-yloxy)-1H-pyrazolo[4,3-c]pyridine] | 0.003
10 | CC1CCCN(c2cc(-c3n[nH]c4ccnc(OC5CCOCC5)c34)ccn2)C1 (centres unmarked) [Example 111, 3-(2-(3-Methylpiperidin-1-yl)pyridin-4-yl)-4-(tetrahydro-2H-pyran-4-yloxy)-1H-pyrazolo[4,3-c]pyridine] | 0.006
11 | c1cc(-c2n[nH]c3ccnc(OC4CCOCC4)c23)cc(NC2COC2)n1 [Example 113, N-(Oxetan-3-yl)-4-(4-(tetrahydro-2H-pyran-4-yloxy)-1H-pyrazolo[4,3-c]pyridin-3-yl)pyridin-2-amine] | 0.136
12 | c1cc(-c2n[nH]c3ccnc(OC4CCOCC4)c23)cc(N2CCC2)n1 [Example 114, 3-(2-(Azetidin-1-yl)pyridin-4-yl)-4-(tetrahydro-2H-pyran-4-yloxy)-1H-pyrazolo[4,3-c]pyridine] | 0.009
13 | Cn1cc(-c2cc(-c3n[nH]c4ccnc(OC5CCOCC5)c34)ccn2)cn1 [Example 116, 3-(2-(1-Methyl-1H-pyrazol-4-yl)pyridin-4-yl)-4-(tetrahydro-2H-pyran-4-yloxy)-1H-pyrazolo[4,3-c]pyridine] | 0.01
14 | COc1nccc2[nH]nc(-c3ccnc(N4[C@@H]5CC[C@H]4COC5)c3)c12 [Example 117, 8-(4-(4-Methoxy-1H-pyrazolo[4,3-c]pyridin-3-yl)pyridin-2-yl)-3-oxa-8-azabicyclo[3.2.1]octane] | 0.08
15 | COc1nccc2[nH]nc(-c3ccnc(N4C[C@@H]5C[C@H]4CO5)c3)c12 [Example 118, (1S,4S)-5-(4-(4-Methoxy-1H-pyrazolo[4,3-c]pyridin-3-yl)pyridin-2-yl)-2-oxa-5-azabicyclo[2.2.1]heptanes] | 0.051
16 | COc1nccc2[nH]nc(-c3ccnc(N4CCCC4)c3)c12 [Example 119, 4-Methoxy-3-(2-(pyrrolidin-1-yl)pyridin-4-yl)-1H-pyrazolo[4,3-c]pyridine] | 0.026
17 | COc1nccc2[nH]nc(-c3ccnc(-c4cnn(C)c4)c3)c12 [Example 121, 4-Methoxy-3-(2-(1-methyl-1H-pyrazol-4-yl)pyridin-4-yl)-1H-pyrazolo[4,3-c]pyridine] | 0.042
18 | c1cc2[nH]nc(-c3ccc4ncn(C5CCOC5)c4c3)c2c(OC2CCOCC2)n1 (centres unmarked) [Example 128, 4-(Tetrahydro-2H-pyran-4-yloxy)-3-(1-(tetrahydrofuran-3-yl)-1H-benzo[d]imidazol-6-yl)-1H-pyrazolo[4,3-c]pyridine] | 0.034

Row | Compound | Ki [µM]
19 | c1cc2[nH]nc(-c3ccc4c(c3)ncn4C3CCOC3)c2c(OC2CCOCC2)n1 (centres unmarked) [Example 129, 4-(tetrahydro-2H-pyran-4-yloxy)-3-(1-(tetrahydrofuran-3-yl)-1H-benzo[d]imidazol-5-yl)-1H-pyrazolo[4,3-c]pyridine] | 0.01
20 | Clc1ccccc1C#Cc1[nH]nc2ccnc(OC3CCOCC3)c12 [Example 132, 3-((2-Chlorophenyl)ethynyl)-4-(tetrahydro-2H-pyran-4-yloxy)-1H-pyrazolo[4,3-c]pyridine] | 0.005
21 | O=C(c1ccc(-c2[nH]nc3ccnc(OC4CCOCC4)c23)cc1)N1CCOCC1 [Example 133, Morpholino(4-(4-(tetrahydro-2H-pyran-4-yloxy)-1H-pyrazolo[4,3-c]pyridin-3-yl)phenyl)methanone] | 0.076
22 | CN(C)C(=O)c1ccc(-c2[nH]nc3ccnc(OC4CCOCC4)c23)cc1F [Example 135, 2-Fluoro-N,N-dimethyl-4-(4-(tetrahydro-2H-pyran-4-yloxy)-1H-pyrazolo[4,3-c]pyridin-3-yl)benzamide] | 0.104
23 | c1cc2[nH]nc(-c3ccc4cn[nH]c4c3)c2c(OC2CCOCC2)n1 [Example 138, 3-(1H-Indazol-6-yl)-4-(tetrahydro-2H-pyran-4-yloxy)-1H-pyrazolo[4,3-c]pyridine] | 0.013
24 | c1cc2[nH]nc(-c3ccc4nc[nH]c4c3)c2c(OC2CCOCC2)n1 [Example 139, 3-(1H-Benzo[d]imidazol-6-yl)-4-(tetrahydro-2H-pyran-4-yloxy)-1H-pyrazolo[4,3-c]pyridine] | 0.014
25 | Cn1ncc2cc(-c3n[nH]c4ccnc(OC5CCOCC5)c34)ccc21 [Example 140, 3-(1-Methyl-1H-indazol-5-yl)-4-(tetrahydro-2H-pyran-4-yloxy)-1H-pyrazolo[4,3-c]pyridine] | 0.013
26 | CC(C)n1cc2ccc(-c3n[nH]c4ccnc(OC5CCOCC5)c34)cc2n1 [Example 143, 3-(2-isopropyl-2H-indazol-6-yl)-4-(tetrahydro-2H-pyran-4-yloxy)-1H-pyrazolo[4,3-c]pyridine] | 0.032
27 | Cn1cnc2cc(-c3n[nH]c4ccnc(OC5CCOCC5)c34)ccc21 [Example 145, 3-(1-methyl-1H-benzo[d]imidazol-5-yl)-4-(tetrahydro-2H-pyran-4-yloxy)-1H-pyrazolo[4,3-c]pyridine] | 0.036
28 | c1cc2[nH]nc(-c3cnn([C@@H]4CCOC4)c3)c2c(OC2CCOCC2)n1 [Example 146, (R)-4-(Tetrahydro-2H-pyran-4-yloxy)-3-(1-(tetrahydrofuran-3-yl)-1H-pyrazol-4-yl)-1H-pyrazolo[4,3-c]pyridine] | 0.005
29 | c1cc2[nH]nc(-c3cnn([C@H]4CCOC4)c3)c2c(OC2CCOCC2)n1 [Example 147, (S)-4-(tetrahydro-2H-pyran-4-yloxy)-3-(1-(tetrahydrofuran-3-yl)-1H-pyrazol-4-yl)-1H-pyrazolo[4,3-c]pyridine] | 0.003
30 | Cc1[nH]nc2cc(C3CC3)nc(OC3CCCCC3)c12 [Example 148, 4-(Cyclohexyloxy)-6-cyclopropyl-3-methyl-1H-pyrazolo[4,3-c]pyridine] | 0.271
31 | c1ccc2ncc(-c3n[nH]c4ccnc(OC5CCOCC5)c34)cc2c1 [Example 150, 3-(4-(Tetrahydro-2H-pyran-4-yloxy)-1H-pyrazolo[4,3-c]pyridin-3-yl)quinoline] | 0.012
32 | N#CCc1cccc(-c2[nH]nc3ccnc(OC4CCOCC4)c23)c1 [Example 151, 2-(3-(4-(Tetrahydro-2H-pyran-4-yloxy)-1H-pyrazolo[4,3-c]pyridin-3-yl)phenyl)acetonitrile] | 0.017
33 | CN(C)c1cccc(-c2[nH]nc3ccnc(OC4CCOCC4)c23)c1 [Example 153, N,N-Dimethyl-3-(4-(tetrahydro-2H-pyran-4-yloxy)-1H-pyrazolo[4,3-c]pyridin-3-yl)aniline] | 0.05
34 | CC(C)NC(=O)c1cccc(-c2[nH]nc3ccnc(OC4CCOCC4)c23)c1 [Example 154, N-Isopropyl-3-(4-(tetrahydro-2H-pyran-4-yloxy)-1H-pyrazolo[4,3-c]pyridin-3-yl)benzamide] | 0.0784
35 | O=C(NC1CC1)c1cccc(-c2[nH]nc3ccnc(OC4CCOCC4)c23)c1 [Example 155, N-Cyclopropyl-3-(4-(tetrahydro-2H-pyran-4-yloxy)-1H-pyrazolo[4,3-c]pyridin-3-yl)benzamide] | 0.027
